Source: PubChem BioAssay (NCI)
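Briefly, cells in 96-well plates were exposed to five compound concentrations for 48 h, and endpoints were estimated by linear interpolation. GI50 = concentration required for 50% inhibition of growth. Definition used: TGI = concentration required for complete inhibition of growth.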

Experiments:
Assay in all cases: DTP human tumour cell line panel, 48 h
SF-295 CNS = test system: SF-295 CNS
DU-145 prostate = test system: DU-145 prostate
SR leukemia = test system: SR leukemia
K-562 leukemia = test system: K-562 leukemia
TK-10 renal = test system: TK-10 renal
NCI/ADR-RES ovarian = test system: NCI/ADR-RES ovarian
BT-549 breast = test system: BT-549 breast
SF-539 CNS = test system: SF-539 CNS
NCI-H23 lung = test system: NCI-H23 lung
UACC-62 melanoma = test system: UACC-62 melanoma
NCI-H226 lung = test system: NCI-H226 lung
SNB-75 CNS = test system: SNB-75 CNS
MDA-MB-468 breast = test system: MDA-MB-468 breast
MCF7 breast = test system: MCF7 breast
HOP-92 NSCLC = test system: HOP-92 NSCLC
NCI-H460 lung = test system: NCI-H460 lung
MALME-3M melanoma = test system: MALME-3M melanoma
HCC-2998 colon = test system: HCC-2998 colon
CAKI-1 renal = test system: CAKI-1 renal
MDA-MB-435 = test system: MDA-MB-435
SK-MEL-28 melanoma = test system: SK-MEL-28 melanoma
KM12 colon = test system: KM12 colon
U251 CNS = test system: U251 CNS
SNB-19 CNS = test system: SNB-19 CNS
HCT-15 colon = test system: HCT-15 colon

CC1(C)CC[C@]23CC[C@]4(C)[C@H](CC[C@@H]5[C@@]6(C)CC[C@H](N)C(C)(C)[C@@H]6CC[C@]54C)[C@H]2[C@H]1OC3=O
TGI (SF-295 CNS): 3.22 µM
GI50 (DU-145 prostate): 1.81 µM
TGI (DU-145 prostate): 3.31 µM
GI50 (SR leukemia): 1.59 µM
TGI (SR leukemia): 5.08 µM
GI50 (K-562 leukemia): 2.53 µM
TGI (K-562 leukemia): > 100 µM
GI50 (TK-10 renal): 1.7 µM
TGI (TK-10 renal): 3.49 µM
GI50 (NCI/ADR-RES ovarian): 1.8 µM
TGI (NCI/ADR-RES ovarian): 3.61 µM
GI50 (BT-549 breast): 1.52 µM
TGI (BT-549 breast): 2.92 µM
GI50 (SF-539 CNS): 1.68 µM
TGI (SF-539 CNS): 3.05 µM
GI50 (NCI-H23 lung): 1.74 µM
TGI (NCI-H23 lung): 3.22 µM
GI50 (UACC-62 melanoma): 1.73 µM
TGI (UACC-62 melanoma): 3.19 µM
GI50 (NCI-H226 lung): 2.15 µM
TGI (NCI-H226 lung): 5.47 µM
GI50 (SNB-75 CNS): 1.36 µM
TGI (SNB-75 CNS): 2.86 µM
GI50 (MDA-MB-468 breast): 1.69 µM
TGI (MDA-MB-468 breast): 3.18 µM
GI50 (MCF7 breast): 1.57 µM
TGI (MCF7 breast): 3.22 µM
GI50 (HOP-92 NSCLC): 1.59 µM
TGI (HOP-92 NSCLC): 3.15 µM
GI50 (NCI-H460 lung): 1.64 µM
TGI (NCI-H460 lung): 3.17 µM
GI50 (MALME-3M melanoma): 1.67 µM
TGI (MALME-3M melanoma): 3.06 µM
GI50 (HCC-2998 colon): 1.61 µM
TGI (HCC-2998 colon): 3.02 µM
GI50 (CAKI-1 renal): 1.57 µM
TGI (CAKI-1 renal): 2.98 µM
GI50 (MDA-MB-435): 1.6 µM
TGI (MDA-MB-435): 3.11 µM
GI50 (SK-MEL-28 melanoma): 1.78 µM
TGI (SK-MEL-28 melanoma): 3.18 µM
GI50 (KM12 colon): 1.82 µM
TGI (KM12 colon): 3.41 µM
GI50 (U251 CNS): 1.72 µM
TGI (U251 CNS): 3.27 µM
GI50 (SNB-19 CNS): 1.64 µM
TGI (SNB-19 CNS): 3.05 µM
GI50 (HCT-15 colon): 1.64 µM
TGI (HCT-15 colon): 3.07 µM
